# Results: ChEMBL document CHEMBL4152365, “Discovery of DS-6930, a potent selective PPARγ modulator. Part I: Lead identification” (Bioorg Med Chem, 2018)
# Assays:
# [1] = Metabolic stability in rat liver microsomes after 0.5 hrs; format: ADME, microsome; settings: read-out: Stability
# [2] = Plasma concentration in hyperglycemic KK/Ta mouse at 30 mg/kg/day, po administered through diet for 3 days measured on day 3 post last dose; format: ADME, organism-based
# Mus musculus [3] = test: Toxicity in hyperglycemic KK/Ta mouse assessed as body weight gain at 30 mg/kg/day, po administered through diet for 3 days relative to control; format: organism-based; settings: in vivo, 72 h
# Mus musculus [4] = test: Glucose-lowering effect in hyperglycemic KK/Ta mouse assessed as reduction in plasma glucose level at 30 mg/kg/day, po administered through diet for 3 days relative to control; format: functional; set-up: scale not given: the % may be the effect or the level left
# [5] = target: T1, Peroxisome proliferator-activated receptor alpha (Homo sapiens, UniProt Q07869); test: Agonist activity at recombinant human GAL4-DBD fused PPARalpha LBD expressed in COS7 cells after 24 hrs by luciferase reporter gene assay; format: cell-based
# T1 sequence (Q07869 whole entry): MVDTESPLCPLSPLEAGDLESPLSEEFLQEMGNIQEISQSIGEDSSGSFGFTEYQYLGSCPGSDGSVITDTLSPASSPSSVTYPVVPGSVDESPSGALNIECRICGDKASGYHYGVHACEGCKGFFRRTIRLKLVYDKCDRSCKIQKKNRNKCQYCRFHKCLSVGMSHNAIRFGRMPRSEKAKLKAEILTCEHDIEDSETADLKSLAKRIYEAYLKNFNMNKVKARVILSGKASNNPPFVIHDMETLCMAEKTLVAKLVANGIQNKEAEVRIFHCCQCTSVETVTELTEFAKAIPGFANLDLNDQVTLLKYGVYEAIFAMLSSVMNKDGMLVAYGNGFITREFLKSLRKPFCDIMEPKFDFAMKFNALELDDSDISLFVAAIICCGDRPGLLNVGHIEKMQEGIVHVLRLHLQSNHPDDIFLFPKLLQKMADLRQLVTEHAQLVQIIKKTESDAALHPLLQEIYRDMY
# Rattus norvegicus [6] = test: Glucose-lowering effect in Zucker diabetic fatty rat assessed as reduction in plasma glucose level at 3 mg/kg, po administered once daily for 14 days measured on day 14 post last dose relative to control; format: functional; set-up: scale not given: the % may be the effect or the level left
# Rattus norvegicus [7] = test: Toxicity in Zucker diabetic fatty rat assessed as body weight gain at 3 mg/kg, po administered once daily for 14 days relative to control; format: organism-based; settings: in vivo, 336 h
# Rattus norvegicus [8] = test: Glucose-lowering effect in Zucker diabetic fatty rat assessed as reduction in plasma glucose level at 0.3 mg/kg, po administered once daily for 14 days measured on day 14 post last dose relative to control; format: functional; set-up: scale not given: the % may be the effect or the level left
# Rattus norvegicus [9] = test: Glucose-lowering effect in Zucker diabetic fatty rat assessed as reduction in plasma glucose level at 30 mg/kg, po administered once daily for 14 days measured on day 14 post last dose relative to control; format: functional; set-up: scale not given: the % may be the effect or the level left
# Rattus norvegicus [10] = test: Toxicity in Zucker diabetic fatty rat assessed as body weight gain at 0.3 mg/kg, po administered once daily for 14 days relative to control; format: organism-based; settings: in vivo, 336 h
# Rattus norvegicus [11] = test: Toxicity in Zucker diabetic fatty rat assessed as body weight gain at 30 mg/kg, po administered once daily for 14 days relative to control; format: organism-based; settings: in vivo, 336 h
# [12] = Cmax in Zucker diabetic fatty rat at 3 mg/kg, po dosed once daily for 14 days and followed by additional administeration on day 15; format: ADME, organism-based; set-up: dose 3 mg/kg, route oral; settings: in vivo
# [13] = Cmax in Zucker diabetic fatty rat at 0.3 mg/kg, po dosed once daily for 14 days and followed by additional administeration on day 15; format: ADME, organism-based; set-up: dose 0.3 mg/kg, route oral; settings: in vivo
# [14] = Cmax in Zucker diabetic fatty rat at 30 mg/kg, po dosed once daily for 14 days and followed by additional administeration on day 15; format: ADME, organism-based; set-up: dose 30 mg/kg, route oral; settings: in vivo
# [15] = Tmax in Zucker diabetic fatty rat at 3 mg/kg, po dosed once daily for 14 days and followed by additional administeration on day 15; format: ADME, organism-based; settings: in vivo
# [16] = Tmax in Zucker diabetic fatty rat at 0.3 mg/kg, po dosed once daily for 14 days and followed by additional administeration on day 15; format: ADME, organism-based; settings: in vivo
# [17] = Tmax in Zucker diabetic fatty rat at 30 mg/kg, po dosed once daily for 14 days and followed by additional administeration on day 15; format: ADME, organism-based; settings: in vivo
# [18] = AUC (0 to 24 hrs) in Zucker diabetic fatty rat at 3 mg/kg, po dosed once daily for 14 days and followed by additional administeration on day 15; format: ADME, organism-based; set-up: dose 3 mg/kg, time < 24 hr, route oral; settings: in vivo
# [19] = AUC (0 to 24 hrs) in Zucker diabetic fatty rat at 0.3 mg/kg, po dosed once daily for 14 days and followed by additional administeration on day 15; format: ADME, organism-based; set-up: time < 24 hr, dose 0.3 mg/kg, route oral; settings: in vivo
# [20] = AUC (0 to 24 hrs) in Zucker diabetic fatty rat at 30 mg/kg, po dosed once daily for 14 days and followed by additional administeration on day 15; format: ADME, organism-based; set-up: time < 24 hr, dose 30 mg/kg, route oral; settings: in vivo
# Rattus norvegicus [21] = test: Toxicity in Zucker diabetic fatty rat assessed as body weight gain administered orally once daily for 14 day; format: organism-based; settings: in vivo, po, 336 h
# [22] = Cmax in Wistar-Imamichi rat at 30 mg/kg, po via gavage once daily for 28 days measured on day 28 post dose; format: ADME, organism-based; set-up: dose 30 mg/kg, route oral; settings: in vivo
# [23] = Tmax in Wistar-Imamichi rat at 30 mg/kg, po via gavage once daily for 28 days measured on day 28 post dose; format: ADME, organism-based; settings: in vivo
# [24] = AUC (0 to 24 hrs) in Wistar-Imamichi rat at 30 mg/kg, po via gavage once daily for 28 days measured on day 28 post dose; format: ADME, organism-based; set-up: time < 24 hr, dose 30 mg/kg, route oral; settings: in vivo
# [25] = Cmax in Wistar-Imamichi rat at 100 mg/kg, po via gavage once daily for 28 days measured on day 28 post dose; format: ADME, organism-based; set-up: dose 100 mg/kg, route oral; settings: in vivo
# [26] = Tmax in Wistar-Imamichi rat at 100 mg/kg, po via gavage once daily for 28 days measured on day 28 post dose; format: ADME, organism-based; settings: in vivo
# [27] = AUC (0 to 24 hrs) in Wistar-Imamichi rat at 100 mg/kg, po via gavage once daily for 28 days measured on day 28 post dose; format: ADME, organism-based; set-up: time < 24 hr, dose 100 mg/kg, route oral; settings: in vivo
# [28] = Cmax in Wistar-Imamichi rat at 300 mg/kg, po via gavage once daily for 28 days measured on day 28 post dose; format: ADME, organism-based; set-up: dose 300 mg/kg, route oral; settings: in vivo
# [29] = Tmax in Wistar-Imamichi rat at 300 mg/kg, po via gavage once daily for 28 days measured on day 28 post dose; format: ADME, organism-based; settings: in vivo
# [30] = AUC (0 to 24 hrs) in Wistar-Imamichi rat at 300 mg/kg, po via gavage once daily for 28 days measured on day 28 post dose; format: ADME, organism-based; set-up: dose 300 mg/kg, time < 24 hr, route oral; settings: in vivo
# Rattus norvegicus [31] = test: Toxicity in Wistar-Imamichi rat assessed as death at 30 to 300 mg/kg, po administered via gavage once daily for 28 days; format: organism-based; settings: in vivo, 672 h
# Rattus norvegicus [32] = test: Toxicity in Wistar-Imamichi rat assessed as clinical abnormality at 30 to 300 mg/kg, po administered via gavage once daily for 28 days; format: organism-based; settings: in vivo, 672 h
# Rattus norvegicus [33] = test: Toxicity in Wistar-Imamichi rat assessed as reduction in RBC count at 30 to 300 mg/kg, po administered via gavage once daily for 28 days; format: organism-based; settings: in vivo, 672 h
# Rattus norvegicus [34] = test: Toxicity in Wistar-Imamichi rat assessed as effect on hematocrit at 30 to 300 mg/kg, po administered via gavage once daily for 28 days; format: organism-based; settings: in vivo, 672 h
# Rattus norvegicus [35] = test: Toxicity in Wistar-Imamichi rat assessed as effect on hemodilution by measuring increase in heart weight at 300 mg/kg, po administered via gavage once daily for 28 days; format: organism-based; settings: in vivo, 672 h
# Rattus norvegicus [36] = test: Toxicity in Wistar-Imamichi rat assessed as elevation in ALT activity at 30 to 300 mg/kg, po administered via gavage once daily for 28 days; format: organism-based; settings: in vivo, 672 h
# Rattus norvegicus [37] = test: Toxicity in Wistar-Imamichi rat assessed as elevation in AST activity at 30 to 300 mg/kg, po administered via gavage once daily for 28 days; format: organism-based; settings: in vivo, 672 h
# Rattus norvegicus [38] = test: Toxicity in Wistar-Imamichi rat assessed as histopathological changes in liver at 30 to 300 mg/kg, po administered via gavage once daily for 28 days; format: organism-based; settings: in vivo, 672 h
# [39] = Cmax in Wistar-Imamichi rat at 0.3 mg/kg, po via gavage once daily for 28 days measured on day 28 post dose; format: ADME, organism-based; set-up: dose 0.3 mg/kg, route oral; settings: in vivo
# [40] = AUC (0 to 24 hrs) in Wistar-Imamichi rat at 0.3 mg/kg, po via gavage once daily for 28 days measured on day 28 post dose; format: ADME, organism-based; set-up: time < 24 hr, dose 0.3 mg/kg, route oral; settings: in vivo
smiles,measurement,setting,value
Cn1c(COc2cccc(C(=O)O)c2)nc2ccc(Oc3ccc(Cl)c(F)c3)cc21,remaining at 0.5 h,[1],94%
same,concentration at 72 h,[2],570 ng/mL
same,Activity,Mus musculus [3],4.4%
same,Activity,Mus musculus [4],43.2%
same,EC50,[5],> 10 µM
same,Activity,Rattus norvegicus [6],43.8%
same,Activity,Rattus norvegicus [7],12.4%
same,Activity,Rattus norvegicus [8],16.6%
same,Activity,Rattus norvegicus [9],74.9%
same,Activity,Rattus norvegicus [10],2.3%
same,Activity,Rattus norvegicus [11],16.7%
same,Cmax,[12],920 ng/mL
same,Cmax,[13],180 ng/mL
same,Cmax,[14],8080 ng/mL
same,Tmax,[15],2.4 h
same,Tmax,[16],6.8 h
same,Tmax,[17],2 h
same,AUC at 24 h,[18],6750 ng·h/mL
same,AUC at 24 h,[19],1740 ng·h/mL
same,AUC at 24 h,[20],55800 ng·h/mL
same,Activity,Rattus norvegicus [21],Dose-dependent effect
same,Cmax,[22],9100 ng/mL
same,Tmax,[23],4 h
same,AUC at 24 h,[24],93700 ng·h/mL
same,Cmax,[25],14900 ng/mL
same,Tmax,[26],5 h
same,AUC at 24 h,[27],192000 ng·h/mL
same,Cmax,[28],22600 ng/mL
same,Tmax,[29],3 h
same,AUC at 24 h,[30],190000 ng·h/mL
same,Activity,Rattus norvegicus [31],Non-Toxic
same,Activity,Rattus norvegicus [32],Non-Toxic
same,Activity,Rattus norvegicus [33],Non-Toxic
same,Activity,Rattus norvegicus [34],Non-Toxic
same,Activity,Rattus norvegicus [35],9.9%
same,Activity,Rattus norvegicus [36],Toxic
same,Activity,Rattus norvegicus [37],Toxic
same,Activity,Rattus norvegicus [38],Non-Toxic
same,Cmax,[39],180 ng/mL
same,AUC at 24 h,[40],1740 ng·h/mL
